Measurements published in US10526295B2, “Nuclear transport modulators and uses thereof” (Karyopharm Therapeutics Inc., priority 2015, dated 2020).

How the values were obtained:
Assay type in all cases: cell-based
[1] = tested on: Z138 cells; assay: MTT cell proliferation assay (Z138); conditions: Homo sapiens, Z-138, approximately 64-72 hours incubation, 1 nM to 30 μM
Protocol: (§1) The MTT cell proliferation assay was used to study the cytotoxic properties of the compounds. The assay was performed according to the method described by Roche Molecular Biochemicals, with minor modifications. The assay is based on the cleavage of the tetrazolium salt, MTT, in the presence of an electron-coupling reagent. The water-insoluble formazan salt produced must be solubilized in an additional step. Cells grown in a 96-well tissue culture plate were incubated with the MTT solution for approximately 4 hours. After this incubation period, a water-insoluble formazan dye formed. After solubilization, the formazan dye was quantitated using a scanning multi-well spectrophotometer (ELISA reader). […] The cells were seeded at 5,000-10,000 cells in each well of 96-well plate in 100 μL of fresh culture medium and were allowed to attach overnight. The stock solutions of the compounds were diluted in 100 μL cell culture medium to obtain eight concentrations of each test compound, ranging from 1 nM to 30 μM. […] All optical densities were measured at 490 nm using a Vmax Kinetic Microplate Reader (Molecular Devices). In most cases, the assay was performed in duplicate and the results were presented as a mean percent inhibition to the negative control±SE. The following formula was used to calculate the percent of inhibition: Inhibition (%)=(1−(ODo/OD))×100.
(§2) The compounds were tested against Z138, MM1S and 3T3 cells. The Z138 cell line is a mature B-cell acute lymphoblastic leukemia cell line derived from a patient with chronic lumphocytic leukemia. The MM1S cell line was established from the peripheral blood of a human multiple myeloma patient. 3T3 cells are standard fibroblast cells; they were originally isolated from Swiss mouse embryo tissue.

[2] = tested on: MM1S cells; assay: MTT cell proliferation assay (MM1S); conditions: Homo sapiens, MM1.S; MM1S multiple myeloma cells; approximately 64-72 hours incubation; 1 nM to 30 μM
Protocol: as §1, §2

[3] = tested on: 3T3 cells; assay: MTT cell proliferation assay (3T3); conditions: Mus musculus, NIH3T3; 3T3 fibroblast cells; approximately 64-72 hours incubation; 1 nM to 30 μM
Protocol: as §1, §2

SMILES	IC50 [2] [µM]	IC50 [1] [µM]	IC50 [3] [µM]
NC(=O)/C(=C/n1cnc(-c2cc(C(F)(F)F)cc(C(F)(F)F)c2)n1)c1ccc(S(=O)(=O)N2CC[C@@H](F)C2)cc1 [Compound 117, (R,E)-3-(3-(3,5-bis(trifluoromethyl)phenyl)-1H-1,2,4-triazol-1-yl)-2-(4-(3-fluoropyrrolidin-1-ylsulfonyl)phenyl)acrylamide]	< 0.1	< 0.1	0.1 to 5
NC(=O)/C(=C/n1cnc(-c2cc(C(F)(F)F)cc(C(F)(F)F)c2)n1)c1cccc(S(=O)(=O)N2CCOCC2)c1 [Compound 119, (E)-3-(3-(3,5-bis(trifluoromethyl)phenyl)-1H-1,2,4-triazol-1-yl)-2-(3-(morpholinosulfonyl)phenyl)acrylamide]	0.1 to 5	0.1 to 5	> 30
NC(=O)/C(=C/n1cnc(-c2cc(C(F)(F)F)cc(C(F)(F)F)c2)n1)c1cccc(S(=O)(=O)N2CCC(F)(F)CC2)c1 [Compound 122, (E)-3-(3-(3,5-bis(trifluoromethyl)phenyl)-1H-1,2,4-triazol-1-yl)-2-(3-(4,4-difluoropiperidin-1-ylsulfonyl)phenyl)acrylamide]	0.1 to 5	0.1 to 5	> 30

Now from value to compound, other results behind:

IC50 [2] [µM]	SMILES	IC50 [1] [µM]	IC50 [3] [µM]
0.1 to 5	NC(=O)/C(=C/n1cnc(-c2cc(C(F)(F)F)cc(C(F)(F)F)c2)n1)c1cccc(S(=O)(=O)N2CC(F)C2)c1 [Compound 123, (E)-3-(3-(3,5-bis(trifluoromethyl)phenyl)-1H-1,2,4-triazol-1-yl)-2-(3-(3-fluoroazetidin-1-ylsulfonyl)phenyl)acrylamide]	0.1 to 5	> 30
> 30	NC(=O)/C(=C/n1cnc(-c2cc(C(F)(F)F)cc(C(F)(F)F)c2)n1)c1cccc(S(=O)(=O)N2CCC(F)(F)C2)c1 [Compound 128, (E)-3-(3-(3,5-bis(trifluoromethyl)phenyl)-1H-1,2,4-triazol-1-yl)-2-(3-(3,3-difluoropyrrolidin-1-ylsulfonyl)phenyl)acrylamide]	0.1 to 5	0.1 to 5
0.1 to 5	NC(=O)/C(=C/n1cnc(-c2cc(C(F)(F)F)cc(C(F)(F)F)c2)n1)c1cccc(S(=O)(=O)N2CCCC2)c1 [Compound 125, (E)-3-(3-(3,5-bis(trifluoromethyl)phenyl)-1H-1,2,4-triazol-1-yl)-2-(3-(pyrrolidin-1-ylsulfonyl)phenyl)acrylamide]	0.1 to 5	> 30
< 0.1	NC(=O)/C(=C/n1cnc(-c2cc(C(F)(F)F)cc(C(F)(F)F)c2)n1)c1ccc(S(=O)(=O)N2CC(F)C2)cc1 [Compound 110, (E)-3-(3-(3,5-bis(trifluoromethyl)phenyl)-1H-1,2,4-triazol-1-yl)-2-(4-(3-fluoroazetidin-1-ylsulfonyl)phenyl)acrylamide]	< 0.1	0.1 to 5
